pIC50, pKi: −log10 of the molar value. Activity calls are given as the source filed them. No cut-off for these calls is given here.

Experiment [1] is described as follows: Selectivity ratio of IC50 for inhibition of N-terminal His-tagged PTPN12 catalytic domain (1 to 294 residues) (unknown origin) expressed in Escherichia coli BL21 (DE3) cells to IC50 for inhibition of N-terminal His-tagged LYP catalytic domain (1 to 294 residues) (unknown origin) expressed in Escherichia coli BL21 (DE3) cells using pNPP as substrate.
The nature of experiment [2]: Selectivity ratio of IC50 for inhibition of N-terminal His-tagged PTP1B catalytic domain (1 to 294 residues) (unknown origin) expressed in Escherichia coli BL21 (DE3) cells to IC50 for inhibition of N-terminal His-tagged LYP catalytic domain (1 to 294 residues) (unknown origin) expressed in Escherichia coli BL21 (DE3) cells using pNPP as substrate.
The target of experiment [3] is T1, Protein phosphatase Slingshot homolog 2 (Homo sapiens, UniProt Q76I76).
T1 sequence (Q76I76 whole entry): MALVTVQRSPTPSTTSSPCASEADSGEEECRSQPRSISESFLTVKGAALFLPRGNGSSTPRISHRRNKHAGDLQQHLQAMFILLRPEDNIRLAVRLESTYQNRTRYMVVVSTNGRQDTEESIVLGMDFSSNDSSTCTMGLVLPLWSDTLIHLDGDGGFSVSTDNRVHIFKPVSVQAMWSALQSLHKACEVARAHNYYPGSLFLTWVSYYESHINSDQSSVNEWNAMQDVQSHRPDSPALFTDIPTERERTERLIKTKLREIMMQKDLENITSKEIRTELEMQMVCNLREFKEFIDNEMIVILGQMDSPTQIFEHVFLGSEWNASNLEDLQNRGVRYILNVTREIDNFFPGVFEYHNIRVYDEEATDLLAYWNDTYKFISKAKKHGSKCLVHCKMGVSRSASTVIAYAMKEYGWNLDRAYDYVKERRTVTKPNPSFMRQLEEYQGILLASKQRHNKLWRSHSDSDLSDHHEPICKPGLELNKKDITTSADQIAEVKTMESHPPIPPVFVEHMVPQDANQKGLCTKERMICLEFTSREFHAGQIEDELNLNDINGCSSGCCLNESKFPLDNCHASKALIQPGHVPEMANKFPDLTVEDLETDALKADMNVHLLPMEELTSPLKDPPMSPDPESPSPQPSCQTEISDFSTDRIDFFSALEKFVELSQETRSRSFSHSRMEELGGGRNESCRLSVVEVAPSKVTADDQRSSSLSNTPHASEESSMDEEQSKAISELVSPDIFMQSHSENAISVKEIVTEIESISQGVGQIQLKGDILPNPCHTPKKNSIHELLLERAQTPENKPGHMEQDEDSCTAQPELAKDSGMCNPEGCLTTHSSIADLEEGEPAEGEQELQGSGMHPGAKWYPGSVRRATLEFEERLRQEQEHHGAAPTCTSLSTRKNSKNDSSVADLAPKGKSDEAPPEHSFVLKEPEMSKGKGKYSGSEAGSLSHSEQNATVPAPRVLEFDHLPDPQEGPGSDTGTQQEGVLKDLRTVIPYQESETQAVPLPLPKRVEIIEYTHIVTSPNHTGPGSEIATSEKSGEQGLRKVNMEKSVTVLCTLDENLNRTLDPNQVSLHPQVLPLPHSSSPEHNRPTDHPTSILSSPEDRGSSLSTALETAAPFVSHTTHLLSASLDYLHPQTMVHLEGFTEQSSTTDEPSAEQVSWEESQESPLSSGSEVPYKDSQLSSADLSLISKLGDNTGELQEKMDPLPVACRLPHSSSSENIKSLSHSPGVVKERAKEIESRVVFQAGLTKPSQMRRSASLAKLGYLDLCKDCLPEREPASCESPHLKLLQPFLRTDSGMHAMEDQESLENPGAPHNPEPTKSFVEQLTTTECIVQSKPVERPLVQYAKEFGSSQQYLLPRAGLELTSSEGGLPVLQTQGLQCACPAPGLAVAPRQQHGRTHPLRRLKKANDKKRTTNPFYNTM
In words: Inhibition of N-terminal His-tagged SSH2 catalytic domain (1 to 294 residues) (unknown origin) expressed in Escherichia coli BL21 (DE3) cells.

The target in experiment [4] is T2, Tyrosine-protein phosphatase non-receptor type 22 (Homo sapiens, UniProt Q9Y2R2).
T2 sequence (Q9Y2R2 whole entry): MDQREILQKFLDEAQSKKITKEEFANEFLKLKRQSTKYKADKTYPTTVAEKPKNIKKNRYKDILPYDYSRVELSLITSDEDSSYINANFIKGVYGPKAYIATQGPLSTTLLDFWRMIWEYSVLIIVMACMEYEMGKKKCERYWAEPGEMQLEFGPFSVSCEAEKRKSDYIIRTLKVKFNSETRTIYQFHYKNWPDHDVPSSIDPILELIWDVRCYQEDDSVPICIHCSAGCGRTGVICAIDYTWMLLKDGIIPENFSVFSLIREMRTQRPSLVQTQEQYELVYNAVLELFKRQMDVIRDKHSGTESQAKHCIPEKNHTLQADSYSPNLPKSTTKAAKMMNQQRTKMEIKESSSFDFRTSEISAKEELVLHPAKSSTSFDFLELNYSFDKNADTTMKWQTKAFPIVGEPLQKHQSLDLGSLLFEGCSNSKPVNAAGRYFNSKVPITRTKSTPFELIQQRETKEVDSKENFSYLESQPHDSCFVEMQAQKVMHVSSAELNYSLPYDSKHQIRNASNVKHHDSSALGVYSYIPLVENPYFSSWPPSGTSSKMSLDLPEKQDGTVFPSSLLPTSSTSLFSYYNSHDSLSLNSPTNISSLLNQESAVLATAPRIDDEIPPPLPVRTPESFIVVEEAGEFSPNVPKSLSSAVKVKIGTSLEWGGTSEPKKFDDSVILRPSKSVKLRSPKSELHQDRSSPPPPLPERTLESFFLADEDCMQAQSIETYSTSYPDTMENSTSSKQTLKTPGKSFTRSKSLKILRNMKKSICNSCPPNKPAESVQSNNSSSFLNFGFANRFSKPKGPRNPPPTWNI
The experiment is described as follows: Inhibition of N-terminal His-tagged LYP catalytic domain (1 to 294 residues) (unknown origin) expressed in Escherichia coli BL21 (DE3) cells using pNPP as substrate by absorbance based plate reader analysis.

Experiment [5] has as its target T2, Tyrosine-protein phosphatase non-receptor type 22. In words: Competitive inhibition of N-terminal His-tagged LYP catalytic domain (1 to 294 residues) (unknown origin) expressed in Escherichia coli BL21 (DE3) cells using pNPP as substrate assessed as inhibition constant by Lineweaver-Burk plot analysis.
The test system of experiment [6] is MC-38. In words: Antitumor immunity against mouse MC-38 cells implanted in syngenic C57BL/6J mouse model assessed as increase in CD4+ T cell proportion in tumor at 50 mg/kg, IG administered twice daily for 14 days by flow cytometric analysis. In kind it is functional, organism-based. Conditions: time 14.0 day. A general note: In flow cytometry, cells or beads pass a laser one at a time.

Experiment [7] relates to MC-38. The experiment is described as follows: Antitumor immunity against mouse MC-38 cells implanted in syngenic C57BL/6J mouse model assessed as increase in M1 tumor associated macrophage proportion in spleen at 50 mg/kg, IG administered twice daily for 14 days by flow cytometric analysis. It counts as functional, organism-based. Conditions: time 14.0 day.
For experiment [8], the system named is MC-38. The experiment is described as follows: Antitumor immunity against mouse MC-38 cells implanted in syngenic C57BL/6J mouse model assessed as upregulation of PD-L1 expression in dendritic cells at 50 mg/kg, IG administered twice daily for 14 days by flow cytometric analysis. It counts as functional, organism-based. Particulars: time 14.0 day.

Regarding `O=C(O)c1cc2cc(N(Cc3ccc(OCc4ccccc4)cc3)S(=O)(=O)c3ccc(-c4ccccc4)cc3)ccc2o1`, the Ratio IC50 in experiment [1] and in experiment [2] was greater than 3.5 each time. The figures for the pIC50 in experiment [3] and in experiment [4] were less than 4.70 and 5.59, respectively. Besides, the pKi in experiment [5] was 6.03. Also, the result with MC-38 [6], in the experiment with MC-38 [7] and in the experiment on MC-38 [8] was Active.

As for `O=C(O)c1cc2cc(N(Cc3ccc(-c4ccccc4)cc3)S(=O)(=O)c3ccc(-c4cccc(O)c4)cc3)ccc2o1`, the Ratio IC50 in experiment [1] and in experiment [2] was 1.8 in each case. The pIC50 in experiment [3] was less than 4.70; in experiment [4], 5.44.

In the case of `CC(=O)C1=C(C)N=c2s/c(=C/c3ccc(OCc4ccc(C(=O)O)cc4)cc3)c(=O)n2C1c1ccc(N(C)C)cc1` (stereo unspecified), the Ratio IC50 in experiment [1] and in experiment [2] was 1.2 each time. In addition, the values for the pIC50 in experiment [3] and in experiment [4] were less than 4.70 and 5.21, respectively. Also, the pKi in experiment [5] was 5.36.

For `O=C(O)c1cc2cc(N(Cc3cccc(-c4ccccc4)c3)S(=O)(=O)c3ccc(-c4ccccc4)cc3)ccc2o1`, the Ratio IC50 in experiment [1] and in experiment [2] was 1.8 throughout. Also, the pIC50 in experiment [3] was less than 4.70; in experiment [4], 5.49.

Compound `COc1ccc(-c2ccc(CN(c3ccc4oc(C(=O)O)cc4c3)S(=O)(=O)c3ccc(Cl)c([N+](=O)[O-])c3)cc2)cc1` had a pIC50 in experiment [3] of less than 4.70. Moreover, the pKi in experiment [5] is 5.87. Also, the outcome in the experiment with MC-38 [6], with MC-38 [7] and in the experiment with MC-38 [8] was Active.

As usually defined, the pIC50 is the negative decadic logarithm of the IC50, by convention in mol/L. A higher pIC50 goes with a small IC50. One may read the pKi as the Ki on a negative log10 scale, so that one unit is a factor of ten.

Source of the values: ChEMBL document CHEMBL5620412, “Discovery of benzofuran-2-carboxylic acid derivatives as lymphoid tyrosine phosphatase (LYP) inhibitors for cancer immunotherapy” (Eur J Med Chem, 2023).
